Positions of bridges follow the written chain, without caps; N, C: chain ends. Residues, ends and D or L forms follow the SMILES beside them.

Usually IC50 stands for the concentration needed to halve the response being measured.

This assay has as its system MCF7. Briefly: Cytotoxicity against human MCF7 cells assessed as decrease in cell viability at 10 uM after 72 hrs by MTT assay. Type of assay: functional, cell-based. Conditions: MCF7, 72 h.
Consider `CC(C)C[C@H](NC(=O)[C@@H](N)CCCCN)C(=O)N[C@H]1CSSC[C@@H]2NC(=O)[C@H](CO)NC(=O)[C@H](CS)NC(=O)CNC(=O)[C@@H]3CCCN3C(=O)[C@H]([C@@H](C)O)NC(=O)[C@H](Cc3ccc(O)cc3)NC(=O)[C@@H]3CSSC[C@@H](C(=O)N[C@@H](CCCCN)C(=O)O)NC(=O)[C@H](Cc4ccccc4)NC(=O)[C@@H]4CCCN4C(=O)[C@H](Cc4ccc(O)cc4)NC(=O)[C@H](CO)NC(=O)[C@H](CSSC[C@H](NC(=O)[C@H]([C@@H](C)O)NC(=O)[C@H](CCC(=O)O)NC(=O)CNC1=O)C(=O)N[C@@H](Cc1ccccc1)C(=O)N[C@@H](CCCCN)C(=O)N[C@@H](Cc1ccccc1)C(=O)N[C@@H](CCCCN)C(=O)N3)NC(=O)[C@H](CO)NC2=O` (H-KLCGETCFKFKCYTPGCSCSCSYPFCK-OH; disulfide 3-19, 7-21, 12-26), for which the IC50 is 2980 nM.
For `CC[C@H](C)[C@H](NC(=O)CN)C(=O)N[C@@H](C)C(=O)N[C@H]1CSSC[C@H]2NC(=O)CNC(=O)[C@@H]3CCCN3C(=O)[C@H]([C@@H](C)CC)NC(=O)[C@H](Cc3ccccc3)NC(=O)[C@@H]3CSSC[C@@H](C(=O)N[C@@H](Cc4ccc(O)cc4)C(=O)N[C@@H](Cc4ccccc4)C(=O)N[C@@H](CC(N)=O)C(=O)O)NC(=O)[C@H](C(C)C)NC(=O)[C@H](CCCCN)NC(=O)[C@H](CO)NC(=O)[C@H](CCCCN)NC(=O)[C@H](CSSC[C@H](NC(=O)[C@H](CO)NC(=O)[C@H](CCC(=O)O)NC(=O)CNC1=O)C(=O)N[C@@H](C(C)C)C(=O)N[C@@H](Cc1ccccc1)C(=O)N[C@@H](CC(C)C)C(=O)NCC(=O)N3)NC(=O)[C@H](CO)N2` the value was 7770 nM.
Take `CC[C@H](C)[C@@H]1NC(=O)[C@@H]2CSSC[C@@H](C(=O)N[C@@H](Cc3ccc(O)cc3)C(=O)N[C@@H](CCCNC(=N)N)C(=O)N[C@@H](CC(=O)O)C(=O)O)NC(=O)[C@H](C(C)C)NC(=O)[C@H](CCCCN)NC(=O)[C@H](CC(N)=O)NC(=O)[C@H](CCCCN)NC(=O)[C@H]3CSSC[C@H](NC(=O)[C@H](CO)NC(=O)[C@H](CCC(=O)O)NC(=O)CNC(=O)[C@@H](NC(=O)[C@@H]4CCCN4C(=O)[C@@H](NC(=O)[C@@H](NC(=O)CN)C(C)C)[C@@H](C)CC)CSSC[C@@H](NC(=O)CNC(=O)[C@H](CC(C)C)NC(=O)[C@H](C(C)C)NC(=O)[C@H](CO)NC(=O)[C@H](CO)NC1=O)C(=O)N[C@@H](CO)C(=O)N3)C(=O)N[C@@H](C(C)C)C(=O)N[C@@H](Cc1ccccc1)C(=O)N[C@@H]([C@@H](C)CC)C(=O)N1CCC[C@H]1C(=O)N2`: the IC50 worked out at 640 nM.

(Values after ChEMBL document CHEMBL4002558, “Characterization of a Bioactive Acyclotide from Palicourea rigida” (J Nat Prod, 2016).)
